Here are results for 65 compounds from PubChem BioAssay AID1195 (EPA DSSTox, 2008).

The test system of this data set is human maximum recommended daily dose, FDA database. Description: DSSTox (FDAMDD) FDA Maximum (Recommended) Daily Dose Database. Particulars: stronger effect = lower value. A digest of the protocol: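 MRDD values come from clinical trials with daily oral dosing, usually for 3–12 months, for the average adult, in mg/day converted to mg/kg-bw/day assuming 60 kg. Antineoplastic mg/m2 doses are divided by 37. Activity score maps log10(1/MRDD mmol) onto 1–100.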

Where [1] appears, read: TherapeuticCategory: anti inflammatory.
Setting [2] is: TherapeuticCategory: local anesthetic.
[3] abbreviates: TherapeuticCategory: anticholinergic.
Setting [4] is: TherapeuticCategory: anxiolytic.
Setting [5] is: TherapeuticCategory: antibacterial.
The mark [6] stands for this setting: TherapeuticCategory: antineoplastic.

For `CC(C)N=C(N)/N=C(\N)Nc1ccc(Cl)c(Cl)c1`, the maximum recommended daily dose (mmol/kg-bw/day) (TherapeuticCategory: antimalarial) is 0.00116.

Regarding `CCCCC1C(=O)NN(c2ccccc2)C1=O` (stereo not given), the maximum recommended daily dose (mmol/kg-bw/day) under setting [1] was 0.0215.

`CC(=O)Nc1c(I)c(NC(C)=O)c(I)c(C(=O)O)c1I`: the maximum recommended daily dose (mmol/kg-bw/day) (TherapeuticCategory: diagnostic aid) was 0.761.

As to `O=c1cc[nH]c(=S)[nH]1`, for the setting “TherapeuticCategory: thyroid depressant”, the maximum recommended daily dose (mmol/kg-bw/day) is 0.026. Regarding `Cc1cccc(C)c1NC(=O)C1CCCCN1C` (stereo not given), the maximum recommended daily dose (mmol/kg-bw/day) under setting [2] is 0.0271. Turning to `C[N+]1([O-])[C@@H]2CC[C@H]1CC(OC(=O)C(CO)c1ccccc1)C2` (stereo not given in full), the maximum recommended daily dose (mmol/kg-bw/day) under setting [3] was 0.000164. Regarding `N#CC(CCN1CCC(C(=O)O)(c2ccccc2)CC1)(c1ccccc1)c1ccccc1`, under “TherapeuticCategory: antiperistaltic, antidiarrheal”, the maximum recommended daily dose (mmol/kg-bw/day) was 0.000313. Turning to `CCCC(C)(COC(N)=O)COC(N)=O`, the maximum recommended daily dose (mmol/kg-bw/day) under setting [4] was 0.183. As to `CCC1(c2ccccc2)C(=O)NC(=O)NC1=O`, the maximum recommended daily dose (mmol/kg-bw/day) (TherapeuticCategory: anticonvulsant, sedative, hypnotic) was 0.0093. Take `CCCCNC(=O)OCC(C)(CCC)COC(N)=O` (stereo not given): under setting [4], the maximum recommended daily dose (mmol/kg-bw/day) is 0.182. As to `CC1(C)S[C@@H]2[C@H](NC(=O)[C@H](N)c3ccccc3)C(=O)N2[C@H]1C(=O)O`, the maximum recommended daily dose (mmol/kg-bw/day) under setting [5] is 0.167. On to `CCN(CC)CCOC(=O)c1ccc(N)cc1Cl`, for which the maximum recommended daily dose (mmol/kg-bw/day) under setting [2] was 0.0308.

Take `CC(=O)O[C@H]1C[C@H](O[C@H]2[C@@H](O)C[C@H](O[C@H]3[C@@H](O)C[C@H](O[C@H]4CC[C@@]5(C)[C@H](CC[C@@H]6[C@@H]5C[C@@H](O)[C@]5(C)[C@@H](C7=CC(=O)OC7)CC[C@]65O)C4)O[C@@H]3C)O[C@@H]2C)O[C@H](C)[C@H]1O[C@@H]1O[C@H](CO)[C@@H](O)[C@H](O)[C@H]1O`: where the note is “TherapeuticCategory: cardiotonic”, the maximum recommended daily dose (mmol/kg-bw/day) was 3.38e-05. In the case of `C[C@@H]1C[C@H]2[C@@H]3CCC4=CC(=O)C=C[C@]4(C)[C@@]3(F)[C@@H](O)C[C@]2(C)[C@@]1(O)C(=O)CO`, the maximum recommended daily dose (mmol/kg-bw/day) (TherapeuticCategory: glucocorticoid, anti inflammatory) was 0.000382. With `CN(C)CC/C=C1\c2ccccc2CSc2ccccc21`, the maximum recommended daily dose (mmol/kg-bw/day) (TherapeuticCategory: antidepressant) is 0.00846. As to `CN1CCCC(=C(c2cccs2)c2cccs2)C1`, under “TherapeuticCategory: antitussive”, the maximum recommended daily dose (mmol/kg-bw/day) is 0.0182.

For `O=C(N[C@H](CO)[C@H](O)c1ccc([N+](=O)[O-])cc1)C(Cl)Cl`, where the note is “TherapeuticCategory: antibacterial, antirickettsial”, the maximum recommended daily dose (mmol/kg-bw/day) is 0.309.

Turning to `Cc1cccc(C)c1NC(=O)c1cc(S(N)(=O)=O)c(Cl)cc1O`, the maximum recommended daily dose (mmol/kg-bw/day) (TherapeuticCategory: diuretic, antihypertensive) is 0.00188. On to `CCN(CC)CC#CCOC(=O)C(O)(c1ccccc1)C1CCCCC1` (stereo not given), for which, under setting [3], the maximum recommended daily dose (mmol/kg-bw/day) was 0.000932. Turning to `COC(=O)c1ccc(O)cc1`, under “TherapeuticCategory: none”, the maximum recommended daily dose (mmol/kg-bw/day) is 0.0657.

In the case of `CO[C@H]1[C@@H](O)[C@H](N)[C@@H](O[C@H]2O[C@H]([C@H](C)N)CC[C@H]2N)[C@H](O)[C@@H]1N(C)C(=O)CN`, the maximum recommended daily dose (mmol/kg-bw/day) under setting [5] is 0.0164.

On to `C[C@]12C=CC(=O)C=C1CC[C@@H]1[C@@H]2CC[C@]2(C)OC(=O)CC[C@@H]12`, for which, under setting [6], the maximum recommended daily dose (mmol/kg-bw/day) was 0.0139. For `C#C[C@]1(OC(C)=O)CC[C@H]2[C@@H]3CCC4=CC(=O)CC[C@@H]4[C@H]3CC[C@@]21C`, where the note is “TherapeuticCategory: progestogen”, the maximum recommended daily dose (mmol/kg-bw/day) was 4.91e-05. Regarding `COc1ccc(Cc2nccc3cc(OC)c(OC)cc23)cc1OC`, where the note is “TherapeuticCategory: smooth muscle relaxant, cerebral vasodilator”, the maximum recommended daily dose (mmol/kg-bw/day) was 0.0295. Take `Cc1ccc(S(=O)(=O)NC(=O)NN2CCCCCC2)cc1`: the maximum recommended daily dose (mmol/kg-bw/day) (TherapeuticCategory: antidiabetic) is 0.0536.

For `CN=C(NC)NCc1ccccc1`, the maximum recommended daily dose (mmol/kg-bw/day) (TherapeuticCategory: antihypertensive) is 0.0188. For `Clc1ccc(COC(Cn2ccnc2)c2ccc(Cl)cc2Cl)c(Cl)c1` (stereo not given), the maximum recommended daily dose (mmol/kg-bw/day) (TherapeuticCategory: topical antifungal) was 0.144. `CC(=O)[C@]1(O)Cc2c(O)c3c(c(O)c2[C@@H](O[C@H]2C[C@H](N)[C@H](O)[C@H](C)O2)C1)C(=O)c1ccccc1C3=O`: under “TherapeuticCategory: antibacterial, antineoplastic”, the maximum recommended daily dose (mmol/kg-bw/day) was 0.00543. In the case of `Cc1ncc(CO)c(CO)c1O`, the maximum recommended daily dose (mmol/kg-bw/day) (TherapeuticCategory: enzyme cofactor vitamin) is 0.0394. Take `CN(C)CC/C=C1\c2ccccc2Sc2ccc(Cl)cc21`: the maximum recommended daily dose (mmol/kg-bw/day) (TherapeuticCategory: antipsychotic) is 0.0105. Turning to `CC[C@@H](CO)NCCN[C@@H](CC)CO`, the maximum recommended daily dose (mmol/kg-bw/day) under setting [5] was 0.122.

For `CN(C)CCN(Cc1ccccc1)c1ccccn1`, the maximum recommended daily dose (mmol/kg-bw/day) (TherapeuticCategory: antihistaminic) is 0.0392. As to `CC(C)(N)Cc1ccc(Cl)cc1`, where the note is “TherapeuticCategory: anorexic”, the maximum recommended daily dose (mmol/kg-bw/day) is 0.00588.

As to `CC(C)[C@@H](C)/C=C/[C@@H](C)[C@H]1CC[C@H]2/C(=C/C=C3\C[C@@H](O)CC[C@@H]3C)CCC[C@]12C`, for the setting “TherapeuticCategory: regulator”, the maximum recommended daily dose (mmol/kg-bw/day) is 0.000105.

As to `Nc1ccc(C(=O)NCC(=O)O)cc1`, the maximum recommended daily dose (mmol/kg-bw/day) (TherapeuticCategory: anti inflammatory, antifungal) is 0.0515. As for `CCN(CC)CCC1(c2ccccc2)CCC(=O)NC1=O` (stereo not given), under “TherapeuticCategory: anticholinergic, antiparkinsonian”, the maximum recommended daily dose (mmol/kg-bw/day) is 0.00289. `CN1[C@@H](CC(=O)c2ccccc2)CCC[C@H]1C[C@H](O)c1ccccc1`: the maximum recommended daily dose (mmol/kg-bw/day) (TherapeuticCategory: respiratory stimulant) is 0.000495. For `NC(=O)c1ncn([C@@H]2O[C@H](CO)[C@@H](O)[C@H]2O)n1`, the maximum recommended daily dose (mmol/kg-bw/day) (TherapeuticCategory: antiviral) was 0.819. For `C[C@@H]1C[C@@]2(C)[C@@H](CC[C@@H]3[C@@H]2CC[C@]2(C)[C@@H](O)CC[C@@H]32)CC1=O`, under setting [6], the maximum recommended daily dose (mmol/kg-bw/day) is 0.00549. Consider `CCN(CCO)CCn1c(Cc2ccccc2)nc2c1c(=O)n(C)c(=O)n2C`, for which, under “TherapeuticCategory: bronchodilator”, the maximum recommended daily dose (mmol/kg-bw/day) is 0.0778. Take `COCC1=C(C(=O)OC(C)OC(=O)OC(C)C)N2C(=O)[C@@H](NC(=O)/C(=N\OC)c3csc(N)n3)[C@H]2SC1` (stereo not given in full): the maximum recommended daily dose (mmol/kg-bw/day) under setting [5] was 0.0179.

Take `CC(O)(P(=O)(O)O)P(=O)(O)O`: the maximum recommended daily dose (mmol/kg-bw/day) (TherapeuticCategory: calcium regulator) is 0.0971. For `NC(CO)(CO)CO`, the maximum recommended daily dose (mmol/kg-bw/day) (TherapeuticCategory: alkalizer) was 2.48. As to `C1CNCCN1`, under “TherapeuticCategory: anthelmintic”, the maximum recommended daily dose (mmol/kg-bw/day) is 0.774. For `CN(C)[C@@H]1C(=O)C(C(N)=O)=C(O)[C@@]2(O)C(=O)C3=C(O)c4c(O)ccc(Cl)c4[C@@](C)(O)[C@H]3C[C@@H]12`, the maximum recommended daily dose (mmol/kg-bw/day) (TherapeuticCategory: antibacterial, antiamebic) is 0.0695.

Regarding `CCc1cc(C(N)=S)ccn1`, the maximum recommended daily dose (mmol/kg-bw/day) under setting [5] is 0.1.

For `CN(C)CCC(c1ccccc1)c1ccccn1` (stereo not given), for the setting “TherapeuticCategory: antihistaminic, antipruritic”, the maximum recommended daily dose (mmol/kg-bw/day) was 0.0026.

Consider `CCC1C(=O)OCC1Cc1cncn1C` (stereo not given), for which the maximum recommended daily dose (mmol/kg-bw/day) (TherapeuticCategory: antiglaucoma, miotic) was 0.0024.

With `CN1CC[C@]23c4c5ccc(O)c4O[C@H]2C(=O)CC[C@@]3(O)[C@H]1C5`, the maximum recommended daily dose (mmol/kg-bw/day) (TherapeuticCategory: narcotic analgesic) was 0.000498. Consider `CN(C)CCCN1c2ccccc2Sc2ccc(Cl)cc21`, for which, under “TherapeuticCategory: antiemetic, antipsychotic”, the maximum recommended daily dose (mmol/kg-bw/day) is 0.0524.

For the compound `CC(=O)[C@@]1(O)CC[C@H]2[C@@H]3C=C(Cl)C4=CC(=O)[C@@H]5C[C@@H]5[C@]4(C)[C@H]3CC[C@@]21C`, where the note is “TherapeuticCategory: antiandrogen”, the maximum recommended daily dose (mmol/kg-bw/day) was 0.0133.

As for `CC(C)n1c(/C=C/[C@@H](O)C[C@@H](O)CC(=O)O)c(-c2ccc(F)cc2)c2ccccc21`, the maximum recommended daily dose (mmol/kg-bw/day) (TherapeuticCategory: antihyperlipoproteinemic) was 0.00162. As to `CC(C)Cc1ccc(C(C)C(=O)OCc2ccccn2)cc1` (stereo not given), the maximum recommended daily dose (mmol/kg-bw/day) under setting [1] was 0.135.

Take `CCCCC(=O)O[C@H]1CC[C@H]2[C@@H]3CCc4cc(O)ccc4[C@H]3CC[C@]12C`: under “TherapeuticCategory: estrogen”, the maximum recommended daily dose (mmol/kg-bw/day) was 0.0014. In the case of `O=C1OC(c2ccc(O)cc2)(c2ccc(O)cc2)c2ccccc21`, the maximum recommended daily dose (mmol/kg-bw/day) (TherapeuticCategory: cathartic) was 0.00682. `Cc1ccccc1-n1c(CF)nc2ccc(N)cc2c1=O`: the maximum recommended daily dose (mmol/kg-bw/day) (TherapeuticCategory: skeletal muscle relaxant) is 0.00353.

On to `CC[C@H]1OC(=O)[C@H](C)[C@@H](O[C@H]2C[C@@](C)(OC)[C@@H](O)[C@H](C)O2)[C@H](C)[C@@H](O[C@@H]2O[C@H](C)C[C@H](N(C)C)[C@H]2O)[C@](C)(O)C[C@@H](C)C(=O)[C@H](C)[C@@H](O)[C@]1(C)O`, for which the maximum recommended daily dose (mmol/kg-bw/day) under setting [5] was 0.0909. Regarding `CC(C)(O)C(C)(O)c1ccc(Cl)cc1` (stereo not given), for the setting “TherapeuticCategory: anxiolytic, anticonvulsant”, the maximum recommended daily dose (mmol/kg-bw/day) was 0.0932.

As to `CC(=O)NO`, for the setting “TherapeuticCategory: antiurolithic, antibacterial adjunct”, the maximum recommended daily dose (mmol/kg-bw/day) was 0.222. In the case of `BrC(Br)Br`, the maximum recommended daily dose (mmol/kg-bw/day) (TherapeuticCategory: sedative, hypnotic, antitussive) is 0.0989. With `CCCN(CC)C(CC)C(=O)Nc1c(C)cccc1C` (stereo not given), the maximum recommended daily dose (mmol/kg-bw/day) under setting [2] was 0.0241. Regarding `CCN[C@H]1C[C@H](C)S(=O)(=O)c2sc(S(N)(=O)=O)cc21`, the maximum recommended daily dose (mmol/kg-bw/day) (TherapeuticCategory: antiglaucomal agent, carbonic anhydrase inhibitor) was 0.00308. Regarding `C/C(=C(/CCO)SSCC1CCCO1)N(C=O)Cc1cnc(C)nc1N` (stereo not given), the maximum recommended daily dose (mmol/kg-bw/day) (TherapeuticCategory: enzyme cofactor) was 0.00419. Consider `COc1ccccc1OCCNCC(O)COc1cccc2[nH]c3ccccc3c12` (stereo not given), for which the maximum recommended daily dose (mmol/kg-bw/day) (TherapeuticCategory: antihypertensive, antianginal) was 0.00103. As to `CO[C@@H]1[C@@H](O[C@@H]2O[C@H](C)[C@@H](O[C@H]3C[C@@](C)(O)[C@@H](O)[C@H](C)O3)[C@H](N(C)C)[C@H]2O)[C@@H](CC=O)C[C@@H](C)[C@@H](O[C@@H]2CC[C@H](N(C)C)[C@@H](C)O2)/C=C/C=C/C[C@@H](C)OC(=O)C[C@H]1O`, the maximum recommended daily dose (mmol/kg-bw/day) under setting [5] was 0.0791.
